Assay: Brain fatty acid levels in WT and 5xFAD mice after chronic oral treatment
Type: in vivo, mouse
Settings: for Brain levels after treatment with DHA-H sodium salt: oral 5-200 mg/kg, 4 months
Method: FIG. 2. […] Brain levels of HPA (Al) or DHA (A2) (nmoles/mg of protein) are represented in the ordinate axis, with respect to treatment doses with the sodium salt of DHA-H (A1) and the sodium salt of DHA (A1 and A2) (mg/kg). A1: • animals WT; ∘ 5xFAD. A2: Black bars refer to WT animals and white bars to 5xFAD. The levels of HPA and DHA were determined in the brain of WT and 5xFAD mice after chronic administration of DHA-H sodium salt (4 months; 5 doses/week M-F; between 3 and 7 months of age; sacrifice at 7 months). HPA accumulates in the brain of both mouse strains similarly, depending on the dose of DHA-H sodium salt administered (A1: • r2=0.9292, p=0.0002; ∘ r2=0.9704, p<0.0001). […] Data are shown as mean±standard error, and statistical analysis was done by one-way ANOVA and Tukey multiple evaluation test: *p<0.05 compared to control (mice treated with vehicle). Therefore, when the prodrug DHA-H, in particular its sodium salt, is administered in healthy mice and transgenic models of Alzheimer's disease, a significant accumulation of HPA occurs at the brain level, without the presence of the prodrug (DHA-H) being detected, nor changes in endogenous levels of DHA. […] The number of total errors (B1), reference memory errors (RME) (B2) or working memory errors (WME) (B3), committed, are represented in the ordinate axis against the brain levels of HPA (nmol/mg of protein) in the abscissa axis. The cognitive assessment was done by testing the 8-arm radial labyrinth during the last month of treatment of the same animals shown in FIG. 2A. Individual experimental points from the entire study animal population were plotted and the data from the 5xFAD animals were adjusted to an inverse polynomial regression f(x)=y0+(a/x). The values of r^2 and p corresponding to the regression of each parameter are shown below: total errors, RME and WME versus the brain concentration of HPA: C1: r^2=0.9146 and p=0.0311; C2: r^2=0.9252 and p=0.0243; C3: r^2=0.7785 and p=0.0346. […]

Brain levels after treatment with DHA-H sodium salt | Brain DHA levels after treatment | SMILES
dose-dependent brain accumulation |  | CC/C=C\C/C=C\C/C=C\C/C=C\C/C=C\CCCCC(=O)O [HPA, (6Z,9Z,12Z,15Z,18Z)-heneicosa-6,9,12,15,18-pentaenoic acid]
undetectable in the brain | did not vary significantly | CCC=CCC=CCC=CCC=CCC=CCC=CCC(O)C(=O)O (stereo not drawn) [DHA-H, 2-hydroxy-drocosahexaenoic acid]

Source: patent publication US20230097753A1, “ALPHA-HYDROXYLATED FATTY-ACID METABOLITES, MEDICAL USES AND USE AS BIOMARKERS” (UNIVERSITAT DE LES ILLES BALEARS, priority 2020, published 2023)
